Target: TYK2 (Homo sapiens, UniProt P29597)
Experiment: TYK2 protein degradation in MOLT-4 cells by immunoblotting
Type: cell-based
Set-up: endogenous in cells; host or cells: MOLT-4
Details: MOLT-4 cells, 24 hours
Method: MOLT-4 cells were treated with compounds at 0.5 and 5 μM concentrations for 24 hours.
MOLT-4 cells were treated with CPD-038, CPD-039, and CPD-040 at 0.04, 0.2, 1, and 5 μM concentrations for 24 hours.
MOLT-4 or NOMO-1 cells were cultured at 37° C. with 5% CO2 in RPMI 1640 Medium supplemented with 10% fetal bovine serum. Cells were authenticated using the short tandem repeat (STR) assays. Mycoplasma test results were negative.
Cultured cells were washed with cold PBS once and lysed in cold RIPA buffer supplemented with protease inhibitors and phosphatase inhibitors (Beyotime Biotechnology). The solutions were then incubated at 4° C. for 30 minutes with gentle agitation to fully lyse cells. Cell lysates were centrifuged at 13,000 rpm for 10 minutes at 4° C. and pellets were discarded. Total protein concentrations in the lysates were determined by BCA assays (Beyotime Biotechnology). Cell lysates were mixed with Laemmli loading buffer to 1× and heated at 99° C. for 5 min. Proteins were resolved on SDS-PAGE and visualized by chemiluminescence. Images were taken by a ChemiDoc MP Imaging system (Bio-Rad). Protein bands were quantitated using the accompanied software provided by Bio-Rad.
The percentage of TYK2 protein degradation of each compound at 0.5 and 5 μM determined in MOLT-4 cells as described in Methods.

Chain of TYK2 (P29597 whole entry): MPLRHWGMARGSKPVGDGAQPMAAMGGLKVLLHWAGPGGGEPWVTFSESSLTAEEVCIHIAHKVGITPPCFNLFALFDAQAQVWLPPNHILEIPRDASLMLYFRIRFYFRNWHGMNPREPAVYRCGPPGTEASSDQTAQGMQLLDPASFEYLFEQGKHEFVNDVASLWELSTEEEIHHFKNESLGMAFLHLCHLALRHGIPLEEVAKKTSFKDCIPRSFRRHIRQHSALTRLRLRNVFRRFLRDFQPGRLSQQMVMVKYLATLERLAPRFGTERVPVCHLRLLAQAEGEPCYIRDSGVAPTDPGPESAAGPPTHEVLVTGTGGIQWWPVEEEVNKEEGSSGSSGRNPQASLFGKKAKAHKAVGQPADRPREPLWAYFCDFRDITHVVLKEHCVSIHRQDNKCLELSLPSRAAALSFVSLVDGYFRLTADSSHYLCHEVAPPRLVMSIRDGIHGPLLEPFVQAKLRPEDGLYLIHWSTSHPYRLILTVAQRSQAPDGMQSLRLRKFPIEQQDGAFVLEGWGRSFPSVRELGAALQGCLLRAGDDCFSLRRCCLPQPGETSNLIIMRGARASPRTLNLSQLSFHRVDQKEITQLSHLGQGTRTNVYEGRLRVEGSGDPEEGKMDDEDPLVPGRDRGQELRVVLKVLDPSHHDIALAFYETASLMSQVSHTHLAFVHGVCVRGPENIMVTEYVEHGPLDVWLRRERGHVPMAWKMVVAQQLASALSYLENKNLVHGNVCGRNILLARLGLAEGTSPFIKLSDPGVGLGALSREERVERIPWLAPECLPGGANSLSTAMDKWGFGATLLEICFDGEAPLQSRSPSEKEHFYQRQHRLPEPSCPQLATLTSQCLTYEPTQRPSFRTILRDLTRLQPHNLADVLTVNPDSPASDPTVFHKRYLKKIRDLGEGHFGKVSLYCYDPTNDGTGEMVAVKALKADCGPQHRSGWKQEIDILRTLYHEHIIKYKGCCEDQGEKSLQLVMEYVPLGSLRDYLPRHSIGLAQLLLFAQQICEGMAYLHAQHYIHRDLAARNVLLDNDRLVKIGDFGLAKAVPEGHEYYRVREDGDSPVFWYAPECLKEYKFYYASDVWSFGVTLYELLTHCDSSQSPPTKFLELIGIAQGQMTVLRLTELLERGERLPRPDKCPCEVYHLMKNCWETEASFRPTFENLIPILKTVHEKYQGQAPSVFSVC

SMILES | TYK2 Degradation (0.5 μM) [%] | TYK2 Degradation (5 μM) [%] | TYK2 Degradation (MOLT-4, 0.5 μM) | TYK2 Degradation (MOLT-4, 5 μM)
CNC(=O)c1nnc(NC(=O)CNC(=O)CCNc2cccc3c2C(=O)N(C2CCC(=O)NC2=O)C3=O)cc1Nc1cccc(-c2ncn(C)n2)c1OC (stereo not shown) [CPD-043, 6-(2-(3-((2-(2,6-Dioxopiperidin-3-yl)-1,3-dioxoisoindolin-4-yl)amino)propanamido)acetamido)-4-((2-methoxy-3-(1-methyl-1H-1,2,4-triazol-3-yl)phenyl)amino)-N-methylpyridazine-3-carboxamide] | ≤20 | ≤20 |  | 
CNC(=O)c1nnc(NC(=O)CNC(=O)CCOCCOCCOCCNc2cccc3c2C(=O)N(C2CCC(=O)NC2=O)C3=O)cc1Nc1cccc(-c2ncn(C)n2)c1OC (stereo not shown) [CPD-051, 6-(1-((2-(2,6-Dioxopiperidin-3-yl)-1,3-dioxoisoindolin-4-yl)amino)-12-oxo-3,6,9-trioxa-13-azapentadecan-15-amido)-4-((2-methoxy-3-(1-methyl-1H-1,2,4-triazol-3-yl)phenyl)amino)-N-methylpyridazine-3-carboxamide] | ≤20 | ≤20 |  | 
CNC(=O)c1nnc(NC(=O)CNC(=O)CCCCCCOc2cc(-c3scnc3C)ccc2CNC(=O)[C@@H]2C[C@@H](O)CN2C(=O)[C@@H](NC(=O)C2(F)CC2)C(C)(C)C)cc1Nc1cccc(-c2ncn(C)n2)c1OC [CPD-106, 6-(2-(7-(2-(((2S,4R)-1-((S)-2-(1-Fluorocyclopropane-1-carboxamido)-3,3-dimethylbutanoyl)-4-hydroxypyrrolidine-2-carboxamido)methyl)-5-(4-methylthiazol-5-yl)phenoxy)heptanamido)acetamido)-4-((2-methoxy-3-(1-methyl-1H-1,2,4-triazol-3-yl)phenyl)amino)-N-methylpyridazine-3-carboxamide] |  |  | C (C: ≤20% TYK2 degradation) | C (C: ≤20% TYK2 degradation)
CNC(=O)c1nnc(NC(=O)CNC(=O)CCCCNc2cccc3c2C(=O)N(C2CCC(=O)NC2=O)C3=O)cc1Nc1cccc(-c2ncn(C)n2)c1OC (stereo not shown) [CPD-045, 6-(2-(5-((2-(2,6-Dioxopiperidin-3-yl)-1,3-dioxoisoindolin-4-yl)amino)pentanamido)acetamido)-4-((2-methoxy-3-(1-methyl-1H-1,2,4-triazol-3-yl)phenyl)amino)-N-methylpyridazine-3-carboxamide] | 40 | ≤20 |  | 
CNC(=O)c1nnc(NC(=O)CNC(=O)CCOCCOCCOCCC(=O)N[C@H](C(=O)N2C[C@H](O)C[C@H]2C(=O)NCc2ccc(-c3scnc3C)cc2)C(C)(C)C)cc1Nc1cccc(-c2ncn(C)n2)c1OC [CPD-030, 6-((S)-18-((2S,4R)-4-Hydroxy-2-((4-(4-methylthiazol-5-yl)benzyl)carbamoyl)pyrrolidine-1-carbonyl)-19,19-dimethyl-4,16-dioxo-7,10,13-trioxa-3,17-diazaicosanamido)-4-((2-methoxy-3-(1-methyl-1H-1,2,4-triazol-3-yl)phenyl)amino)-N-methylpyridazine-3-carboxamide] | ≤20 | ≤20 |  | 
CNC(=O)c1nnc(NC(=O)CNC(=O)CCOCCOCCOCCOCCNc2ccc3c(c2)C(=O)N(C2CCC(=O)NC2=O)C3=O)cc1Nc1cccc(-c2ncn(C)n2)c1OC (stereo not shown) [CPD-064, 6-(1-((2-(2,6-Dioxopiperidin-3-yl)-1,3-dioxoisoindolin-5-yl)amino)-15-oxo-3,6,9,12-tetraoxa-16-azaoctadecan-18-amido)-4-((2-methoxy-3-(1-methyl-1H-1,2,4-triazol-3-yl)phenyl)amino)-N-methylpyridazine-3-carboxamide] | ≤20 | ≤20 |  | 
CNC(=O)c1nnc(NC(=O)CNC(=O)CCCCCCNc2ccc3c(c2)C(=O)N(C2CCC(=O)NC2=O)C3=O)cc1Nc1cccc(-c2ncn(C)n2)c1OC (stereo not shown) [CPD-059, 6-(2-(7-((2-(2,6-Dioxopiperidin-3-yl)-1,3-dioxoisoindolin-5-yl)amino)heptanamido)acetamido)-4-((2-methoxy-3-(1-methyl-1H-1,2,4-triazol-3-yl)phenyl)amino)-N-methylpyridazine-3-carboxamide] | ≤20 | ≤20 |  | 
CNC(=O)c1nnc(NC(=O)CNC(=O)CCOc2cc(-c3scnc3C)ccc2CNC(=O)[C@@H]2C[C@@H](O)CN2C(=O)[C@@H](NC(=O)C2(F)CC2)C(C)(C)C)cc1Nc1cccc(-c2ncn(C)n2)c1OC [CPD-102, 6-(2-(3-(2-(((2S,4R)-1-((S)-2-(1-Fluorocyclopropane-1-carboxamido)-3,3-dimethylbutanoyl)-4-hydroxypyrrolidine-2-carboxamido)methyl)-5-(4-methylthiazol-5-yl)phenoxy)propanamido)acetamido)-4-((2-methoxy-3-(1-methyl-1H-1,2,4-triazol-3-yl)phenyl)amino)-N-methylpyridazine-3-carboxamide] |  |  | C (C: ≤20% TYK2 degradation) | C (C: ≤20% TYK2 degradation)
CNC(=O)c1nnc(NC(=O)CNC(=O)CCOCCOCCOCCOCCOCCC(=O)N[C@H](C(=O)N2C[C@H](O)C[C@H]2C(=O)NCc2ccc(-c3scnc3C)cc2)C(C)(C)C)cc1Nc1cccc(-c2ncn(C)n2)c1OC [CPD-033, N^1—((S)-1-((2S,4R)-4-Hydroxy-2-((4-(4-methylthiazol-5-yl)benzyl)carbamoyl)pyrrolidin-1-yl)-3,3-dimethyl-1-oxobutan-2-yl)-N^19-(2-((5-((2-methoxy-3-(1-methyl-1H-1,2,4-triazol-3-yl)phenyl)amino)-6-(methylcarbamoyl)pyridazin-3-yl)amino)-2-oxoethyl)-4,7,10,13,16-pentaoxanonadecanediamide] | ≤20 | ≤20 |  | 
CNC(=O)c1nnc(Nc2ccc(N3CCN(C(=O)CCCCCCC(=O)N[C@H](C(=O)N4C[C@H](O)C[C@H]4C(=O)NCc4ccc(-c5scnc5C)cc4)C(C)(C)C)CC3)cn2)cc1Nc1cccc(-c2ncn(C)n2)c1OC [CPD-100, 6-((5-(4-(8-(((S)-1-((2S,4R)-4-hydroxy-2-((4-(4-methylthiazol-5-yl)benzyl)carbamoyl)pyrrolidin-1-yl)-3,3-dimethyl-1-oxobutan-2-yl)amino)-8-oxooctanoyl)piperazin-1-yl)pyridin-2-yl)amino)-4-((2-methoxy-3-(1-methyl-1H-1,2,4-triazol-3-yl)phenyl)amino)-N-methylpyridazine-3-carboxamide] |  |  | A (A: ≥60% TYK2 degradation) | B (B: <60% TYK2 degradation, and >20% TYK2 degradation)
CNC(=O)c1nnc(NC(=O)C2CC2)cc1Nc1cccc(-c2ncn(CCNC(=O)CCCCCCCCC(=O)N[C@H](C(=O)N3C[C@H](O)C[C@H]3C(=O)NCc3ccc(-c4scnc4C)cc3)C(C)(C)C)n2)c1OC [CPD-081, N^1-(2-(3-(3-((6-(Cyclopropanecarboxamido)-3-(methylcarbamoyl)pyridazin-4-yl)amino)-2-methoxyphenyl)-1H-1,2,4-triazol-1-yl)ethyl)-N^10-((S)-1-((2S,4R)-4-hydroxy-2-((4-(4-methylthiazol-5-yl)benzyl)carbamoyl)pyrrolidin-1-yl)-3,3-dimethyl-1-oxobutan-2-yl)decanediamide] |  |  | C (C: ≤20% TYK2 degradation) | C (C: ≤20% TYK2 degradation)
CNC(=O)c1nnc(NC(=O)C2CC2)cc1Nc1cccc(-c2ncn(CCNC(=O)CCOCCOCCOCCC(=O)N[C@H](C(=O)N3C[C@H](O)C[C@H]3C(=O)NCc3ccc(-c4scnc4C)cc3)C(C)(C)C)n2)c1OC [CPD-071, 6-(Cyclopropanecarboxamido)-4-((3-(1-((5)-18-((2S,4R)-4-hydroxy-2-((4-(4-methylthiazol-5-yl)benzyl)carbamoyl)pyrrolidine-1-carbonyl)-19,19-dimethyl-4,16-dioxo-7,10,13-trioxa-3,17-diazaicosyl)-1H-1,2,4-triazol-3-yl)-2-methoxyphenyl)amino)-N-methylpyridazine-3-carboxamide] | ≤20 | ≤20 |  | 
CNC(=O)c1nnc(NC(=O)CNC(=O)CCOCCOCCOCCOCCOCCNc2ccc3c(c2)C(=O)N(C2CCC(=O)NC2=O)C3=O)cc1Nc1cccc(-c2ncn(C)n2)c1OC (stereo not shown) [CPD-065, 6-(1-((2-(2,6-Dioxopiperidin-3-yl)-1,3-dioxoisoindolin-5-yl)amino)-18-oxo-3,6,9,12,15-pentaoxa-19-azahenicosan-21-amido)-4-((2-methoxy-3-(1-methyl-1H-1,2,4-triazol-3-yl)phenyl)amino)-N-methylpyridazine-3-carboxamide] | ≤20 | ≤20 |  | 
CNC(=O)c1nnc(NC(=O)C2CC2)cc1Nc1cccc(-c2ncn(CCNC(=O)CCCCCNc3ccc4c(c3)C(=O)N(C3CCC(=O)NC3=O)C4=O)n2)c1OC (stereo not shown) [CPD-023, 6-(Cyclopropanecarboxamido)-4-((3-(1-(2-(6-((2-(2,6-dioxopiperidin-3-yl)-1,3-dioxoisoindolin-5-yl)amino)hexanamido)ethyl)-1H-1,2,4-triazol-3-yl)-2-methoxyphenyl)amino)-N-methylpyridazine-3-carboxamide] | ≤20 | ≤20 |  | 

Reference: patent US20240059671A1, “TYROSINE KINASE 2 (TYK2) DEGRADATION COMPOUNDS AND METHODS OF USE” (CULLGEN (SHANGHAI), INC., priority 2020, published 2024)
